Where no end group is shown, it is not given here.
Columns and labels:
B82L fibroblasts = type: cell-based, mouse; conditions: 6 h
Experimental: FIGS. 6A-6H—Inhibition of B82L fibroblast and HMEC-1 cell attachment and spreading on VN by synstatin82-130. B82L fibroblasts, which rely on the αvβ5 integrin for attachment to VN, and human dermal microvascular endothelial cells, which rely on both the αvβ3 and αvβ5 integrins for attachment to VN, were plated in the absence of peptide (FIGS. 6A, 6E) or in the presence of 0.1 (FIGS. 6B, 6F), 0.3 (FIGS. 6C, 6G) or 1 μM (FIGS. 6D, 6H) synstatin82-130 for 2 hr and processed as described in FIG. 2.
Cell adhesion and spreading assays were performed with modification to the previous procedures (Lebakken and Rapraeger, 1996. Briefly, human plasma vitronectin or fibronectin at 10-30 μg/ml were applied to nitrocellulose-coated ten well slides (Erie Scientific) and incubated for 1-2 h at 37° C. Slides were blocked with 1.0% heat-denatured bovine serum albumin for a minimum of 30 min at 37° C. Cells were detached from the substratum using 5 mM EDTA in Tris-buffered saline and resuspended in HEPES-buffered culture medium containing 0.1% heat-denatured BSA. Cells were plated at a density of 15,000 cells per well and allowed to attach and spread for 2 h prior to fixation in 4% paraformaldehyde in CMF-PBS. For fluorescence microscopy, fixed cells were permeabilized in 0.2% Triton X-100, labeled with rhodamine-conjugated phalloidin and analyzed using fluorescence microscopy. […]

[1] = system: syndecan-1 association with the αvβ3 and αvβ5 integrins; experiment: Co-immunoprecipitation of β3/β5 integrin with syndecan-1 from HMEC-1 cells; type: binding, human; conditions: HMEC-1, 30 μM GST-mS1ED or 1 μM SSTN
Text: FIGS. 8A-8D—SSTN disrupts association of syndecan-1 with the αvβ3 and αvβ5 integrins. (FIG. 8A) Diagram of mouse syndecan-4 (mS4), human syndecan-1 (hS1) and mouse syndecan-1 (mS1) and mS1 deletion mutants showing which proteoglycans are able to activate the αvβ3 and αvβ5 integrins. (FIG. 8B) Flow cytometry of human aortic endothelial cells (HAEC), human dermal microvascular endothelial cells (HMEC-1) or mouse aortic endothelial cells (MAEC) using human or mouse-specific antibodies for syndecan-1, αvβ3, and αvβ5. The β5 subunit is detected by Western blot in mouse cells and is compared to B82L fibroblasts known to express this integrin; (FIG. 8C) Human syndecan-1 is immunoprecipitated from HMEC-1 cells in the presence or absence of 30 μM GST, 30 μM GST-mS1ED (mouse syndecan-1 ectodomain), or 1 μM SSTN and detected on blots along with co-precipitating β3 or β5 integrin. (FIG. 8D) Human syndecan-1 is immunoprecipitated from MDA-MB-231 human mammary carcinoma cells expressing full-length mouse syndecan-1 (F1-mS1), a mouse mutant bearing deletion of amino acids 67-121 (mS1^Δ67-121), or vector alone (NEO) and blotted for the co-precipitation of the αvβ3 integrin by detection of the β3 subunit. […]

SNTETAFTSVLPAGEKPEEGEPVLHVEAEPGFTARDKEKEVTTRPRETV [synstatin82-130]
IC50 (B82L fibroblasts): ~100 nM

B1: S1ED: recombinant mouse Sdc1 ectodomain (amino acids 18-251), expressed in bacteria as GST fusion or 6×His-tagged protein (protein)
chain: QPALPQIVAVNVPPEDQDGSGDDSDNFSGSGTGALPDTLSRQTPSTWKDVWLLTATPTAPEPTSSNTETAFTSVLPAGEKPEEGEPVLHVEAEPGFTARDKEKEVTTRPRETVQLPITQRASTVRVTTAQAAVTSHPHGGMQPGLHETSAPTAPGQPDHQPPRVEGGGTSVIKEVVEDGTANQLPAGEGSGEQDFTFETSGENTAVAAVEPGLRNQPPVDEGATGASQSLLDRK
modifications: left off: a dimerising Fc or GST
notes: recombinant mouse Sdc1 ectodomain (amino acids 18-251), expressed in bacteria as GST fusion or 6×His-tagged protein
co-precipitation of β3 and β5 integrin with human syndecan-1 [1]: displace the integrins

Source: US10864251B2, “Peptides of syndecan-1 for inhibiting angiogenesis” (Wisconsin Alumni Research Foundation, priority 2006, dated 2020)
